Data reported in publication PMC5384871 (British journal of haematology, 2017).

What was measured:
Assay in all cases: biochemical kinase assay at […] ATP
Details in all cases: read-out: NDI-031301
JAK2 = JAK2 (Homo sapiens, UniProt O60674)
TYK2 = TYK2 (Homo sapiens, UniProt P29597)
JAK3 = biological target: T1, JAK3 (Homo sapiens, UniProt P52333)
T1 sequence (P52333 1-1124): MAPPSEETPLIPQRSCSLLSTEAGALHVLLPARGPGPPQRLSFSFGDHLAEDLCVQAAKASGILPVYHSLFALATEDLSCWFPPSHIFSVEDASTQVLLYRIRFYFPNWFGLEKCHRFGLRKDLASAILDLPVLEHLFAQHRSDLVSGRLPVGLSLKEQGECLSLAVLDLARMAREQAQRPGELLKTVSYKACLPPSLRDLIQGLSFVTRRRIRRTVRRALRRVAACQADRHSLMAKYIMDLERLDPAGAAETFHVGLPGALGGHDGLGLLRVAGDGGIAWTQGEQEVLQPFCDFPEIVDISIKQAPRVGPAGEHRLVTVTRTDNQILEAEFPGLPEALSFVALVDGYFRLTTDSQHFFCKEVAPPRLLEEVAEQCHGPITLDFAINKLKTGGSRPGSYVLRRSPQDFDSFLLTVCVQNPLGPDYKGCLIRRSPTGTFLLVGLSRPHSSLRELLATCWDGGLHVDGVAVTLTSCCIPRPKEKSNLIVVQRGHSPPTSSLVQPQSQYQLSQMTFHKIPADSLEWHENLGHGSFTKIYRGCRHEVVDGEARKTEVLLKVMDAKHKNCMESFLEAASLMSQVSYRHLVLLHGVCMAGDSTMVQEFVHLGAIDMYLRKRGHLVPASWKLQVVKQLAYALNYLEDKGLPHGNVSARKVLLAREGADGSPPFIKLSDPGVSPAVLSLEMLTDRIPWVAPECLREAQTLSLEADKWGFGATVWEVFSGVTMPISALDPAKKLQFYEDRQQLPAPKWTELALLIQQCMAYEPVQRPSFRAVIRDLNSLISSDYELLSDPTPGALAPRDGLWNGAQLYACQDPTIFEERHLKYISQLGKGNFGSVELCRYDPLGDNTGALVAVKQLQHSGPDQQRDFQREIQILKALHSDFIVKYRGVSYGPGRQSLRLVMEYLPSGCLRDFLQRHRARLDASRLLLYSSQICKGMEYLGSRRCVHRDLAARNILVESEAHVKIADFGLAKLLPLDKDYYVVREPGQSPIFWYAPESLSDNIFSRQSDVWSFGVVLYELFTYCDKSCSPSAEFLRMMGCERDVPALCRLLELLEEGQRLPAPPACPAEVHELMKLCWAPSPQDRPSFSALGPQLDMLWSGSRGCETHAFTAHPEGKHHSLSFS

JAK1 = JAK1 (Homo sapiens, UniProt P23458)
Sequence of JAK1 (P23458 whole entry): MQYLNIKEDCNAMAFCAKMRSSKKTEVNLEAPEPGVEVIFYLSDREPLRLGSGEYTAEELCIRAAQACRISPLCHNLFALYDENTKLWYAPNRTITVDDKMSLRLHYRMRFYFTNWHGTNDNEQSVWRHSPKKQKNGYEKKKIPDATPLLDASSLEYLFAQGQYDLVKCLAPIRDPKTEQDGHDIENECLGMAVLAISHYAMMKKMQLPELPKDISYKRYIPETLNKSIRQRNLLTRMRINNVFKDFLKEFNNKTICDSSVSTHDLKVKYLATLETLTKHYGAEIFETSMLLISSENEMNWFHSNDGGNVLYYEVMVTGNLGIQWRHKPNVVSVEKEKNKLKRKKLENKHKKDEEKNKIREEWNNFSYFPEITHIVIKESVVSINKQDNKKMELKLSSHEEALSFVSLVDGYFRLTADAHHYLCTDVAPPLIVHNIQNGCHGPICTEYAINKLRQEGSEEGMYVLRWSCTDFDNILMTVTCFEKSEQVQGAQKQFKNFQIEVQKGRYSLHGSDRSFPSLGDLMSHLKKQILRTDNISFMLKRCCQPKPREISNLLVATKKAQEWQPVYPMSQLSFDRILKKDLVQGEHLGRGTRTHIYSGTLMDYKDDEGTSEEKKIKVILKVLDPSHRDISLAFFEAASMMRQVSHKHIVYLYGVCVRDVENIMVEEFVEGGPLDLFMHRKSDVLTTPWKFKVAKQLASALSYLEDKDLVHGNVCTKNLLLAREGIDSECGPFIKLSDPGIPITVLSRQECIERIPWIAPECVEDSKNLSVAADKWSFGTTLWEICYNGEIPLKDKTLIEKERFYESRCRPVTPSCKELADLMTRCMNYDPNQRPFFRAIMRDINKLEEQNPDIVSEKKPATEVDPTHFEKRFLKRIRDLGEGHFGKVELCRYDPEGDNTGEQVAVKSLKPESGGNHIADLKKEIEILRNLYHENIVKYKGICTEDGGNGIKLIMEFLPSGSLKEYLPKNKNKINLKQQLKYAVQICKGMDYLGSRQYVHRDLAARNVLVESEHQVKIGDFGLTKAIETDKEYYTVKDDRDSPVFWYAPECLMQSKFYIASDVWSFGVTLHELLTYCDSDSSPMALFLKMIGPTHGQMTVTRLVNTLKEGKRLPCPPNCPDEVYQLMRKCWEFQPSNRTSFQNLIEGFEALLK

Sequence of TYK2 (P29597 whole entry): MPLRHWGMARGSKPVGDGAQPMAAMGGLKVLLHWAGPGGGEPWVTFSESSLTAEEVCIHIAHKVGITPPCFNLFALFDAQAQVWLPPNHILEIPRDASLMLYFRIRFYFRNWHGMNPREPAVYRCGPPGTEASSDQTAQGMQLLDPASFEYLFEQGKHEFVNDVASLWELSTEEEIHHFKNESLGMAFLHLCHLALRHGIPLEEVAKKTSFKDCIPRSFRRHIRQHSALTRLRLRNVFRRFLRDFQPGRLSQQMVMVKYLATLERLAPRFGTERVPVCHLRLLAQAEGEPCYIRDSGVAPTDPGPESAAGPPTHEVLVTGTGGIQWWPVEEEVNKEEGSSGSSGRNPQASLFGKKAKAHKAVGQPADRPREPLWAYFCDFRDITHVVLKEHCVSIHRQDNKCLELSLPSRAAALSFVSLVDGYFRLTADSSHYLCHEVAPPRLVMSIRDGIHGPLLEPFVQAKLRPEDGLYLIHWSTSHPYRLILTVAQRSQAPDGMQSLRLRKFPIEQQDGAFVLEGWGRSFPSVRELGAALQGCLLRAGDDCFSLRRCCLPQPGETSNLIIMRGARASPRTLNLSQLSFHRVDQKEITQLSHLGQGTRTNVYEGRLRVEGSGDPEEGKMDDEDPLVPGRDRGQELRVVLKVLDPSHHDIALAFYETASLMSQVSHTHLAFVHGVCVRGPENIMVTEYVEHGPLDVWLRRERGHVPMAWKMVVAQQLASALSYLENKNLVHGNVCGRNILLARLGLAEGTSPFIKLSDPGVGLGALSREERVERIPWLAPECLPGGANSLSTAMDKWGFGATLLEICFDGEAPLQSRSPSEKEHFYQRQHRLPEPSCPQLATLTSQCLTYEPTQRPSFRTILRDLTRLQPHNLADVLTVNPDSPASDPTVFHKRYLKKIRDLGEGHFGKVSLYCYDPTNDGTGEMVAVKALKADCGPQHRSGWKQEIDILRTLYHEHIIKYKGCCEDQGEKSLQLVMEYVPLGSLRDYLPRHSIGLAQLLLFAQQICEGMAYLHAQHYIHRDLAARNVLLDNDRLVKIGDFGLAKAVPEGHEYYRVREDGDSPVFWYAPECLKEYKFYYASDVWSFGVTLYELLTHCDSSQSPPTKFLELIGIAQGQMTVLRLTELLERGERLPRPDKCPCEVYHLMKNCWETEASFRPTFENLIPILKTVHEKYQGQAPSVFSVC
Sequence of JAK2 (O60674 whole entry): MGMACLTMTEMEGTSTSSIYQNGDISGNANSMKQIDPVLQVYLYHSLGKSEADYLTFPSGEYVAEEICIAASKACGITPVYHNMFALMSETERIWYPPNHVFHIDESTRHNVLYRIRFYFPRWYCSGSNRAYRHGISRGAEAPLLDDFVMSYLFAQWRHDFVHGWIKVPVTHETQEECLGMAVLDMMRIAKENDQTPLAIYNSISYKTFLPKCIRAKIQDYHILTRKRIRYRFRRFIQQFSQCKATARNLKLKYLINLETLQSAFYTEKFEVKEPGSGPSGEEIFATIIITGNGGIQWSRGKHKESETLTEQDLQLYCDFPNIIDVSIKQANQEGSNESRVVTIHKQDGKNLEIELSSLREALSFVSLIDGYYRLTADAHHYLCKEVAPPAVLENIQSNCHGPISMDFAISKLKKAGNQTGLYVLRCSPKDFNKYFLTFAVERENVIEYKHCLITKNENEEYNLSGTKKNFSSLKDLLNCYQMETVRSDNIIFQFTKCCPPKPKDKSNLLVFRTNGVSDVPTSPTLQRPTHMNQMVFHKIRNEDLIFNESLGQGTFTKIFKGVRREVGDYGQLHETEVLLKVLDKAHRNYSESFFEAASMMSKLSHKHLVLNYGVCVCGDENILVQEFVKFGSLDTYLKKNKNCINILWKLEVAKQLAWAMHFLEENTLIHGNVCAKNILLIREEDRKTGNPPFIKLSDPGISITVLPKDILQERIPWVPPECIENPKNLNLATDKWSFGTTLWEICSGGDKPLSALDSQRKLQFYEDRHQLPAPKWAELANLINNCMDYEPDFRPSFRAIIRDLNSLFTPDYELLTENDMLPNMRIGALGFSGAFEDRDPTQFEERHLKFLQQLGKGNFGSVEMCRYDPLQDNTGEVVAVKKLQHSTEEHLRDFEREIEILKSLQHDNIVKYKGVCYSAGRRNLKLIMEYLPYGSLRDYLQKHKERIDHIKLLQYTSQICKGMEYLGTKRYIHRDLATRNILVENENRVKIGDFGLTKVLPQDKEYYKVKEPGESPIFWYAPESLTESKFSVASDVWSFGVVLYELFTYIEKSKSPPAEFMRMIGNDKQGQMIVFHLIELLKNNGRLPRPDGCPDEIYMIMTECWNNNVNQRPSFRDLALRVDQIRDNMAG

Ki (JAK2): 2750 nM | Ki (TYK2): 130 nM | Ki (JAK3): 2480 nM | Ki (JAK1): 2200 nM
Substance: NDI-031301
